Source: US20210238170A1, “5,5-Difluoro- and 5-Fluoro-5-Methyl-C-Glycoside Derivatives Useful As Dual SGLT1 / SGLT2 Modulators” (Janssen Pharmaceutica NV, priority 2018, published 2021)

Experiments:
human SGLT1 = target: T1, human SGLT1 (Homo sapiens, UniProt P13866); experiment: SGLT1 in vitro assay: Na-dependent 14C-AMG uptake in CHO-K1 cells stably expressing human SGLT1; format: cell-based; settings: CHO-K1 cells stably expressing human SGLT1, 14C-AMG uptake; for inhibition at 0.3 µM: read-out: SGLT1 % Inh @ 0.3 μM; for IC50: compounds of formula (I) where R0 is fluoro
T1 construct: expressed in transfected cells
T1 sequence (P13866 1-664): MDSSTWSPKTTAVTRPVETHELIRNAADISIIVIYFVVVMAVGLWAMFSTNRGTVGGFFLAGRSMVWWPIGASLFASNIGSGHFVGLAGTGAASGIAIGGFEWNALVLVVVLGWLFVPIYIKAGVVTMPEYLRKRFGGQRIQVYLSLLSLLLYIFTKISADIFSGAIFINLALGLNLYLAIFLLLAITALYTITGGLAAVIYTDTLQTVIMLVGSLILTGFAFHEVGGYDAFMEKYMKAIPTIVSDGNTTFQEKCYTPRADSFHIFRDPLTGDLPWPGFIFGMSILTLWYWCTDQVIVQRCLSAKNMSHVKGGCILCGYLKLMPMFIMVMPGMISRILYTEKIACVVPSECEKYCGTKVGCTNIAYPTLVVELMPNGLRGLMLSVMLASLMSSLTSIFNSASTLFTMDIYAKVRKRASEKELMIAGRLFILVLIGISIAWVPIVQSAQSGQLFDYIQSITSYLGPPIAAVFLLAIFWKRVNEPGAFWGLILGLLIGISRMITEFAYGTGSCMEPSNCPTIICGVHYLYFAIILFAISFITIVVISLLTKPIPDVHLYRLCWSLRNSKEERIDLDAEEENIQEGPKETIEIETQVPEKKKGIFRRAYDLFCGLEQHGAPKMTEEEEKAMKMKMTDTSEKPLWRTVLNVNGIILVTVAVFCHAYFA
How it was run: (§1)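 Sodium-dependent uptake of 14C-α-methyl-glucopyranoside ([…]) over 2 h at 37°C was counted by scintillation in stable human SGLT2- or SGLT1-CHO-K1 lines pretreated with 10 mM Na-butyrate. Compounds at 0.001–10 μM were preincubated for 10 min in pH 7.4 buffer with 137 mM NaCl; output is %-inhibition or IC50.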

human SGLT2 = target: T2, human SGLT2 (Homo sapiens, UniProt P31639); experiment: SGLT2 in vitro assay: Na-dependent 14C-AMG uptake in CHO-K1 cells stably expressing human SGLT2; format: cell-based; settings: CHO-K1 cells stably expressing human SGLT2, 14C-AMG uptake; for inhibition at 0.3 µM: read-out: SGLT2 % Inh @ 0.3 μM; for IC50: compounds of formula (I) where R0 is fluoro
T2 construct: expressed in transfected cells
T2 sequence (P31639 1-672): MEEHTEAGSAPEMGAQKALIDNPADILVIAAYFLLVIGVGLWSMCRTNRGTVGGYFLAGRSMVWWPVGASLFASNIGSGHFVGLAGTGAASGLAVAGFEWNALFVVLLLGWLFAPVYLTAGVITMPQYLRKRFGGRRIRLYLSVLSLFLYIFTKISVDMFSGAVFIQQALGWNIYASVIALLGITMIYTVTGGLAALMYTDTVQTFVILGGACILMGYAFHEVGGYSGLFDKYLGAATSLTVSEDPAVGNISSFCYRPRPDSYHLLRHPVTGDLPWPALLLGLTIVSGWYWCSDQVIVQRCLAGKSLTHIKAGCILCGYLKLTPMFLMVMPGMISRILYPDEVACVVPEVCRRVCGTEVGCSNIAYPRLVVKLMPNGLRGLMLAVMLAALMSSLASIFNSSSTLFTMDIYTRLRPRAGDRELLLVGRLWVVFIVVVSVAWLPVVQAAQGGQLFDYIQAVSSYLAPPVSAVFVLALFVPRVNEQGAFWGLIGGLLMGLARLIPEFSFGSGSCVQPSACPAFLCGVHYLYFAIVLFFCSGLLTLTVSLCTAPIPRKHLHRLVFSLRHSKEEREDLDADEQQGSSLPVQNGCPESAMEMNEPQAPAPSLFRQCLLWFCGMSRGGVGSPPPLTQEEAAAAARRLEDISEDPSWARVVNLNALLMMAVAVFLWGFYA
How it was run: as §1

## Cc1cc(O)c([C@@H]2O[C@H](CO)C(F)(F)[C@H](O)[C@H]2O)cc1Cc1ccc(C2CC2)cc1 [Compound 124, (2S,3R,4R,6R)-2-(5-(4-cyclopropylbenzyl)-2-hydroxy-4-methylphenyl)-5,5-difluoro-6-(hydroxymethyl)-tetrahydro-2H-pyran-3,4-diol]
Human SGLT1
  inhibition at 0.3 µM: 75.5%
  IC50: 158 nM
Human SGLT2
  inhibition at 0.3 µM: 90.3%
  IC50: 1 nM

## OC[C@H]1O[C@@H](c2cc(Cc3ccc(OCF)cc3)c(Cl)cc2O)[C@H](O)[C@@H](O)C1(F)F [Compound 125]
Human SGLT1
  SGLT1 % Inh @ 0.3 μM: 32.9%
Human SGLT2
  SGLT2 % Inh @ 0.3 μM: 90.2%

## OC[C@H]1O[C@@H](c2cc(Cc3ccc4c(c3)CCCO4)c(Cl)c3c2OCC3)[C@H](O)[C@@H](O)C1(F)F [Compound 126]
Human SGLT1
  SGLT1 % Inh @ 0.3 μM: 28.7%
Human SGLT2
  SGLT2 % Inh @ 0.3 μM: 87.1%

## CCc1ccc(Cc2cc([C@@H]3O[C@H](CO)C(F)(F)[C@H](O)[C@H]3O)c(O)cc2Cl)cc1 [Compound 127, (2S,3R,4R,6R)-2-{4-chloro-5-[(4-ethylphenyl)methyl]-2-hydroxyphenyl}-5,5-difluoro-6-(hydroxymethyl)oxane-3,4-diol]
Human SGLT1
  inhibition at 0.3 µM: 67.6%
  IC50: 142 nM
Human SGLT2
  inhibition at 0.3 µM: 89.2%
  IC50: 2.6 nM

## CCc1ccc(Cc2cc([C@@H]3O[C@H](CO)C(F)(F)[C@H](O)[C@H]3O)c(O)cc2CC)cc1 [Compound 128]
Human SGLT1
  inhibition at 0.3 µM: 79.5%
  IC50: 120 nM
Human SGLT2
  inhibition at 0.3 µM: 88.7%
  IC50: 7.7 nM

## CCc1ccc(Cc2cc([C@@H]3O[C@H](CO)C(F)(F)[C@H](O)[C@H]3O)c(OC)cc2C)cc1 [Compound 129]
Human SGLT1
  SGLT1 % Inh @ 0.3 μM: 16.4%
Human SGLT2
  SGLT2 % Inh @ 0.3 μM: 87.1%

## CCc1ccc(Cc2cc([C@@H]3O[C@H](CO)C(F)(F)[C@H](O)[C@H]3O)c(OC)cc2CC)cc1 [Compound 130]
Human SGLT1
  SGLT1 % Inh @ 0.3 μM: 22.9%
Human SGLT2
  SGLT2 % Inh @ 0.3 μM: 83.7%

## CCc1ccc(Cc2cc([C@@H]3O[C@H](CO)C(F)(F)[C@H](O)[C@H]3O)c(O)cc2C)cc1 [Compound 131, (2S,3R,4R,6R)-2-(5-(4-ethylbenzyl)-2-hydroxy-4-methylphenyl)-5,5-difluoro-6-(hydroxymethyl)tetrahydro-2H-pyran-3,4-diol]
Human SGLT1
  inhibition at 0.3 µM: 64.4%
  IC50: 96 nM
Human SGLT2
  inhibition at 0.3 µM: 88.6%
  IC50: 2.7 nM

## OC[C@H]1O[C@@H](c2cc(Cc3ccc4c(c3)SCCO4)c(Cl)c3c2OCC3)[C@H](O)[C@@H](O)C1(F)F [Compound 132]
Human SGLT1
  inhibition at 0.3 µM: 40.7%
  IC50: 422 nM
Human SGLT2
  inhibition at 0.3 µM: 83.9%
  IC50: 4.5 nM

## Cc1cc(O)c([C@@H]2O[C@H](CO)C(F)(F)[C@H](O)[C@H]2O)cc1Cc1ccc(OCF)cc1 [Compound 133]
Human SGLT1
  inhibition at 0.3 µM: 67.7%
  IC50: 153 nM
Human SGLT2
  inhibition at 0.3 µM: 90.6%
  IC50: 1.3 nM

## COc1cc(O)c([C@@H]2O[C@H](CO)C(F)(F)[C@H](O)[C@H]2O)cc1Cc1cc2c(s1)CCN(C#N)C2 [Compound 134]
Human SGLT1
  SGLT1 % Inh @ 0.3 μM: 31.6%
Human SGLT2
  SGLT2 % Inh @ 0.3 μM: 62.3%

## CCc1ccc(Cc2cc([C@@H]3O[C@H](CO)C(F)(F)[C@H](O)[C@H]3O)c(OC)cc2Cl)cc1 [Compound 135]
Human SGLT1
  SGLT1 % Inh @ 0.3 μM: 16.5%
Human SGLT2
  SGLT2 % Inh @ 0.3 μM: 88.0%

## OC[C@H]1O[C@@H](c2cc(Cc3ccc(C4CC4)cc3)c(Cl)cc2O)[C@H](O)[C@@H](O)C1(F)F [Compound 136]
Human SGLT1
  inhibition at 0.3 µM: 68.7%
  IC50: 138 nM
Human SGLT2
  inhibition at 0.3 µM: 90.9%
  IC50: 2.1 nM

## CCc1ccc(Cc2cc([C@@H]3O[C@H](CO)C(F)(F)[C@H](O)[C@H]3O)c(O)cc2C2CC2)cc1 [Compound 137]
Human SGLT1
  SGLT1 % Inh @ 0.3 μM: 50.4%
Human SGLT2
  SGLT2 % Inh @ 0.3 μM: 52.5%

## COc1cc(C)c(Cc2ccc(OCF)cc2)cc1[C@@H]1O[C@H](CO)C(F)(F)[C@H](O)[C@H]1O [Compound 138]
Human SGLT1
  inhibition at 0.3 µM: 40.3%
  IC50: 836 nM
Human SGLT2
  inhibition at 0.3 µM: 76.7%
  IC50: 1.9 nM

## COc1cc(O)c([C@@H]2O[C@H](CO)C(F)(F)[C@H](O)[C@H]2O)cc1Cc1ccc(C2CC2)cc1 [Compound 140]
Human SGLT1
  inhibition at 0.3 µM: 81.1%
  IC50: 72 nM
Human SGLT2
  inhibition at 0.3 µM: 85.5%
  IC50: 1.9 nM

## OC[C@H]1O[C@@H](c2cc(Cc3ccc(C4CC4)cc3)c(C3CC3)cc2O)[C@H](O)[C@@H](O)C1(F)F [Compound 141]
Human SGLT1
  inhibition at 0.3 µM: 78.8%
  IC50: 95 nM
Human SGLT2
  inhibition at 0.3 µM: 82.8%
  IC50: 44.9 nM

## COc1cc(O)c([C@@H]2O[C@H](CO)C(F)(F)[C@H](O)[C@H]2O)cc1Cc1ccc(OCF)cc1 [Compound 142]
Human SGLT1
  inhibition at 0.3 µM: 62.6%
  IC50: 234 nM
Human SGLT2
  inhibition at 0.3 µM: 69.4%
  IC50: 3 nM

## OC[C@H]1O[C@@H](c2cc(Cc3ccc(OCF)cc3)c(C3CC3)cc2O)[C@H](O)[C@@H](O)C1(F)F [Compound 143]
Human SGLT1
  SGLT1 % Inh @ 0.3 μM: 72.3%
Human SGLT2
  SGLT2 % Inh @ 0.3 μM: 62.9%

## COc1cc(OC)c([C@@H]2O[C@H](CO)C(F)(F)[C@H](O)[C@H]2O)cc1Cc1ccc(C2CC2)cc1 [Compound 144]
Human SGLT1
  SGLT1 % Inh @ 0.3 μM: 30.6%
Human SGLT2
  SGLT2 % Inh @ 0.3 μM: 75.0%

## CCc1ccc(Cc2cc([C@@H]3O[C@H](CO)C(F)(F)[C@H](O)[C@H]3O)c(O)cc2OC)cc1 [Compound 145]
Human SGLT1
  inhibition at 0.3 µM: 78.1%
  IC50: 83 nM
Human SGLT2
  inhibition at 0.3 µM: 64.4%
  IC50: 2.8 nM

## OC[C@H]1O[C@@H](c2cc3c(c(Cc4ccc(OCF)cc4)c2)OCC3)[C@H](O)[C@@H](O)C1(F)F [Compound 146]
Human SGLT1
  SGLT1 % Inh @ 0.3 μM: 41.9%
Human SGLT2
  SGLT2 % Inh @ 0.3 μM: 76.8%

## COc1cc(OC)c([C@@H]2O[C@H](CO)C(F)(F)[C@H](O)[C@H]2O)cc1Cc1ccc(OCF)cc1 [Compound 147]
Human SGLT1
  SGLT1 % Inh @ 0.3 μM: 26.5%
Human SGLT2
  SGLT2 % Inh @ 0.3 μM: 64.7%

## CCc1cc(O)c([C@@H]2O[C@H](CO)C(F)(F)[C@H](O)[C@H]2O)cc1Cc1ccc(OCF)cc1 [Compound 148]
Human SGLT1
  inhibition at 0.3 µM: 83%
  IC50: 53 nM
Human SGLT2
  inhibition at 0.3 µM: 82.4%
  IC50: 1.5 nM

## CCc1cc(O)c([C@@H]2O[C@H](CO)C(F)(F)[C@H](O)[C@H]2O)cc1Cc1ccc(C2CC2)cc1 [Compound 150]
Human SGLT1
  inhibition at 0.3 µM: 84.4%
  IC50: 72 nM
Human SGLT2
  inhibition at 0.3 µM: 72.5%
  IC50: 3.1 nM

## CCc1cc(OC)c([C@@H]2O[C@H](CO)C(F)(F)[C@H](O)[C@H]2O)cc1Cc1ccc(C2CC2)cc1 [Compound 151]
Human SGLT1
  inhibition at 0.3 µM: 52.1%
  IC50: 644 nM
Human SGLT2
  inhibition at 0.3 µM: 88%
  IC50: 6.2 nM

## CN(C)c1ccc(Cc2cc([C@@H]3O[C@H](CO)C(F)(F)[C@H](O)[C@H]3O)c(O)cc2C#N)cc1 [Compound 152]
Human SGLT1
  SGLT1 % Inh @ 0.3 μM: 32.7%
Human SGLT2
  SGLT2 % Inh @ 0.3 μM: 84.5%

## CCc1ccc(Cc2cc([C@@H]3O[C@H](CO)C(F)(F)[C@H](O)[C@H]3O)c(OC)cc2OC)cc1 [Compound 153]
Human SGLT1
  inhibition at 0.3 µM: 48.7%
  IC50: 591 nM
Human SGLT2
  inhibition at 0.3 µM: 88.1%
  IC50: 6.7 nM

## COc1cccc(Cc2cc([C@@H]3O[C@H](CO)C(F)(F)[C@H](O)[C@H]3O)c(O)cc2Cl)c1 [Compound 157]
Human SGLT1
  inhibition at 0.3 µM: 71.8%
  IC50: 112 nM
Human SGLT2
  inhibition at 0.3 µM: 89.7%
  IC50: 2.6 nM

## Cc1ccc(Cc2cc([C@@H]3O[C@H](CO)C(F)(F)[C@H](O)[C@H]3O)c(O)cc2Cl)s1 [Compound 161]
Human SGLT1
  inhibition at 0.3 µM: 87.8%
  IC50: 35 nM
Human SGLT2
  inhibition at 0.3 µM: 87.6%
  IC50: 2.5 nM
